In publication PMC2816240 (European Journal of Nuclear Medicine and Molecular Imaging, 2009):

How the values were obtained:
[1] = tested on: male Wistar rats; type: in vivo, rat; settings: 20 h post-injection, n = 5 rats, vs PBS
[2] = tested on: male Wistar rats; experiment: Adverse effects of injection in rats; type: in vivo; settings: peptide #6 0.2, 1 or 5 mg per rat i.v.

Sequence: ENFVAFVDKCCAADDKEA CFAVEGPKLVVSTQTALA [peptide #6]
- uptake of 111In-octreotide in the pancreas and other organs ([1]; peptide #6 5 mg i.v.): unaffected
- uptake of 111In-minigastrin and 111In-exendin in organs other than the kidneys ([1]; peptide #6 i.v.): not affected
- adverse effects of injection [2]: no adverse effects
